The source of these data is paper PMC6250127 (Journal of medicinal chemistry, 2015).

One may read the viability as a per cent measure of how many cells are alive, often set against a control. One may read the Emax as the size of the effect at its maximum, as opposed to the concentration needed. One may read the Ki as a measure of affinity in units of concentration, obtained from inhibition or displacement. A low value points to a stronger hold on the target. Usually EC50 stands for the concentration giving half of the maximal effect. High values mean a need for much substance, low ones an effect from little substance.

A short description of series [1]: PC12 cell viability, direct effect of compound. The conditions noted are these: rat.
The test system of series [2] is PC12 cells. Kind of series: Neuroprotection against 6-OHDA-induced toxicity in PC12 cells. The conditions noted are these: 24 h pretreatment, then 75 μM 6-OHDA for 24 h.
For a further series, the target named is human D3 receptor (Homo sapiens, UniProt P35462). Description: Stimulation of [35S]GTPγS binding, human D3 receptor in CHO cells. In kind it is biochemical. The conditions noted are these: for Emax: read-out: hCHO−D3 Emax, percent of Emax observed with 100 μM DA; for D2/D3: ratio of GTPγS EC50 values. (In general: Binding of GTPγS marks nucleotide exchange on a G protein.)

Series [3] concerns PC12 cells. Description: PC12 cell viability, direct effect of compound. As to conditions: PC12 cells, 0.01− 30 μM.
The next series deals with human D2 receptor (Homo sapiens, UniProt P14416). Kind of series: Stimulation of [35S]GTPγS binding, human D2 receptor in CHO cells. The conditions noted are these: for Emax: read-out: hCHO−D2 Emax, percent of Emax observed with 1 mM DA; for hCHO−D2 Emax: percent of Emax observed with 1 mM DA. In kind it is biochemical.
The next series deals with reserpinized rats. Description: Reversal of reserpine-induced hypolocomotion in rats. The class given is in vivo, rat. The conditions noted are these: for reversal of reserpine-induced hypolocomotion (locomotor activity): 10 μMol/kg ip, reserpine 5 mg/kg sc, 18 h pretreatment, rats; for duration of locomotor activation: 10 μMol/kg, reserpinized rats, locomotion monitored for 6 h.

A further series has as its target rat D2L receptor (Rattus norvegicus, UniProt P61169). Description: [3H]spiroperidol competition binding, rat D2L receptor in HEK-293 cells.
Series [4] deals with T1, rat D3 receptor (Rattus norvegicus, UniProt P19020). Kind of series: [3H]spiroperidol competition binding, rat D3 receptor in HEK-293 cells. The conditions noted are these: for D2L/D3: ratio of Ki values, selectivity for D3.
The target in series [5] is T1, rat D3 receptor. As to conditions: ratio of Ki values; cited from earlier work.

“Also recorded” adds a separate entry of the source. Where two headings read alike, the source gives them in different places.

T1 sequence (P19020 whole entry): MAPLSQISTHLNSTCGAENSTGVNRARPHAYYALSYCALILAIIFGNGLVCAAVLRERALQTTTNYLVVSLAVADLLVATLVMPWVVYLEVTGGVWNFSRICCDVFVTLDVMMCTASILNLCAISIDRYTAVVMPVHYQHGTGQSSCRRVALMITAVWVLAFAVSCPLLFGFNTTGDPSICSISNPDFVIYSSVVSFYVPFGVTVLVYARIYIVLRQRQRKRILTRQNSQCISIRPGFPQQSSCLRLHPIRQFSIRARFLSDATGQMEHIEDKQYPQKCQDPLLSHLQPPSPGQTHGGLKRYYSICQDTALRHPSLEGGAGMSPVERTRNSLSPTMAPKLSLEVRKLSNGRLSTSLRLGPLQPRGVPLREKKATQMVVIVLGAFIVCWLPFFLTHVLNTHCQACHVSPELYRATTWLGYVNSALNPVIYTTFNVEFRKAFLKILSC
Chain of human D3 receptor (P35462 whole entry): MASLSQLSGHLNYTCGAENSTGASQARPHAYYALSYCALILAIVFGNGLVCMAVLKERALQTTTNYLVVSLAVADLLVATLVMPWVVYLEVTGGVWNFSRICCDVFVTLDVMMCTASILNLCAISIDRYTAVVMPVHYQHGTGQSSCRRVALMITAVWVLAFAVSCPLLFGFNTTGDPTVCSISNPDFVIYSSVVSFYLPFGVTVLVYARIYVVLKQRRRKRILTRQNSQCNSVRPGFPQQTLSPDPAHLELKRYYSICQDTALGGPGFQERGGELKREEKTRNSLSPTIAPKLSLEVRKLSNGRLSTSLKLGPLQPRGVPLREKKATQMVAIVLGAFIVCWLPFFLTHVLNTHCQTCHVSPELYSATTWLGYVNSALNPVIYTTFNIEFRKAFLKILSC
Chain of human D2 receptor (P14416 whole entry): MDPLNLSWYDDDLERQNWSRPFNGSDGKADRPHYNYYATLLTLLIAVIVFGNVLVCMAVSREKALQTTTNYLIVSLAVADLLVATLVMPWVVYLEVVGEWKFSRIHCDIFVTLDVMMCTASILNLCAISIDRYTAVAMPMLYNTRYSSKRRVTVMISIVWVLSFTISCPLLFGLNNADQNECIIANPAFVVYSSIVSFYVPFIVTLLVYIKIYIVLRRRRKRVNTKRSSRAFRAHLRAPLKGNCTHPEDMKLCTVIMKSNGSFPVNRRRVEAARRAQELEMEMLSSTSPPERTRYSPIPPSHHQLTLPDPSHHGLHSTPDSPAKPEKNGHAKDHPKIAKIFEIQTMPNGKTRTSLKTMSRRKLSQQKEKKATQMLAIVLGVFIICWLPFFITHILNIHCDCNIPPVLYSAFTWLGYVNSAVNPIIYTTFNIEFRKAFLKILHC
Chain of rat D2L receptor (P61169 whole entry): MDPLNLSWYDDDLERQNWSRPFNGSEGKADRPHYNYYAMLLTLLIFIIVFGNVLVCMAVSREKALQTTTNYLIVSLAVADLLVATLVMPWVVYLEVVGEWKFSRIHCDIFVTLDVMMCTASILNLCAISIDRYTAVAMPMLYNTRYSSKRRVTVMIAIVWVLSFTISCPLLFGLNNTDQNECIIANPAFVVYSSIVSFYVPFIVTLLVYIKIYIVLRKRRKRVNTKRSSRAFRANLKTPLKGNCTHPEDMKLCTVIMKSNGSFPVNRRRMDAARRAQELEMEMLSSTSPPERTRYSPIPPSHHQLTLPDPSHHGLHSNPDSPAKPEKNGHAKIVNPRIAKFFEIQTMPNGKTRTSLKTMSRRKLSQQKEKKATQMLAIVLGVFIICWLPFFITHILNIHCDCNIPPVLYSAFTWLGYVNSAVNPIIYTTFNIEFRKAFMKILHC

In series [1], `NCCc1cc(O)c(O)cc1O` [6-OHDA, 6-hydroxydopamine, reference compound] came in with a viability at 24 h, 75 μM of around 50%.
In the case of `CCCN(CCN1CCN(c2ccc3cc[nH]c3c2Cl)CC1)[C@H]1CCc2nc(N)sc2C1.O=C(O)C(F)(F)F` [(−)-21a, (S)-N^6-(2-(4-(7-Chloro-1H-indol-6-yl)piperazin-1-yl)ethyl)-N^6-propyl-4,5,6,7-tetrahydrobenzo[d]thiazole-2,6-diamine], the “neuroprotective effect against 6-OHDA-induced toxicity” value with PC12 cells [2] is “neuroprotective; also recorded: dose-dependently protected the cells from the neurotoxic insult”. Also, the Emax at human D3 receptor was above 100%. The “effect of compound alone on cell viability” value with PC12 cells [3] was “no cell loss at all”. In addition, on human D2 receptor, the Emax is above 100%. In the series on reserpinized rats, the “reversal of reserpine-induced hypolocomotion (locomotor activity)” value (from here on “reversal”) is on record as “highly effcacious in reversing hypolocomotion; also recorded: highly efficacious in reversing akinesia in rats” and the “duration of locomotor activation” value is on record as “long duration of action; also recorded: significant enhancement of locomotion for the entire duration of the study of 6 h”.
For the compound `C#CCN(CCN1CCN(c2ccc3[nH]ccc3c2Cl)CC1)[C@H]1CCc2nc(N)sc2C1` [(−)-34, (S)-N^6-(2-(4-(4-Chloro-1H-indol-5-yl)piperazin-1-yl)ethyl)-N^6-(prop-2-yn-1-yl)-4,5,6,7-tetrahydrobenzo[d]thiazole-2,6-diamine], on rat D2L receptor, the Ki amounted to 0.0865 ± 0.015 µM. For the same compound, on human D3 receptor, the EC50 stood at 0.0109 ± 0.0024 µM, the D2/D3 came to 1.98 and the maximum response (Emax) turned out to be 94 ± 3.5%. Besides, on rat D3 receptor [4], the inhibition constant Ki amounted to 0.0144 ± 0.001 µM and the D2L/D3 was 5.99. At human D2 receptor, the EC50 stood at 0.0216 ± 0.0096 µM and the “hCHO−D2 Emax” value was 26.7 ± 6.4%. Also, the “reversal” value in the series on reserpinized rats is given as “able to elevate locomotor activity in the above PD animal model significantly; also recorded: locomotor activity was enhanced compared to control but was less than that observed with (−)-21a”.
`C#CCN(CCN1CCN(c2ccc3cc[nH]c3c2Cl)CC1)[C@H]1CCc2nc(N)sc2C1` [(−)-36, (S)-N^6-(2-(4-(7-Chloro-1H-indol-6-yl)piperazin-1-yl)ethyl)-N^6-(prop-2-yn-1-yl)-4,5,6,7-tetrahydrobenzo[d]thiazole-2,6-diamine] displayed a Ki at rat D2L receptor of 0.172 ± 0.016 µM. Also, on human D3 receptor, a half-maximal effect (EC50) was put at 0.00084 ± 5e-05 µM, the D2/D3 is on record as 46.9 and the Emax was around 100%. On human D3 receptor (percent of Emax observed with 100 μM DA), the “hCHO−D3 Emax” value was 93.4 ± 3.6%. In addition, on rat D3 receptor [4], the affinity, expressed as Ki, was 0.000145 ± 3.5e-05 µM and the D2L/D3 amounted to 1186. In addition, at human D2 receptor, the EC50 was determined as 0.0394 ± 0.0063 µM, the “hCHO−D2 Emax” value is reported as 86.8 ± 3.8% and the maximum response (Emax) was around 100%.
In the case of `CCCN(CCN1CCN(C(=O)c2c[nH]c3ccccc23)CC1)C1CCc2nc(N)sc2C1` [D-443, (4-(2-((2-amino-4,5,6,7-tetrahydrobenzo[d]-thiazol-6-yl)(propyl)amino)ethyl)-piperazin-1-yl)(1H-indol-3-yl)methanone], the D2L/D3 at rat D3 receptor [5] is recorded as 360.
For the compound `CCCN(CCC)CCc1cccc2c1CC(=O)N2` [ropinirole, reference compound], in the series on reserpinized rats, the “reversal” value is reported as “quick onset of locomotor activation compared to control” and the “duration of locomotor activation” value is listed as “much shorter duration of action compared with (−)-21a”.
